In brackets after ≈: the same amount, converted by molar mass.

Common to all, as to type: cell-based
Assay [1] deals with M. globosa (IMF51946 strain). Kind of assay: Antimicrobial activity against microbes of genus Malassezia: colony formation inhibition (Test Example 2). The settings on record: 1 min, final concentration 500 ppm, 1 minute contact, read-out: Colony formation inhibition rate (%). The procedure:
(§1) The Malassezia microbe (Malassezia pachydermatis) cultured for 5 to 7 days in a Sabouraud medium (1% peptone, 4% dextrin, 1.5% agar) supplemented with 0.5% of Tween 40 (polyoxyethylene sorbitan monopalmitate: manufactured by Kanto Chemical Co., Inc.) was suspended in physiological saline and a suspension thereof was prepared in such a way as to have an absorbance of 0.25 at 550 nm. Thereto, the test compound dissolved in DMSO was added in such a way as to provide a final concentration of 500 ppm, and after 1 minute, 10 µL of the suspension and 10 mL of physiological saline were placed in a syringe and stirred, and the syringe was connected to a 37 mm Quality Monitor (manufactured by Pall Corporation) followed by filtration and washing. The membrane filter was impregnated as it was with a Sabouraud medium supplemented with 1% of Tween80 (polyoxyethylene sorbitan monooleate: manufactured by Kanto Chemical Co., Ltd.) and subjected to culturing at 32° C. for 72 hours, the number of colonies formed there (number of colonies in the inventive plot) and the number of colonies in a solvent to which the test compound was not added (the number of colonies in the non-agent treated plot) were measured, and the colony formation inhibition rate (%) was determined according to the following expression. Colony formation inhibition rate (%) = [(number of colonies in non-agent treated plot - number of colonies in inventive plot)/number of colonies in non-agent treated plot] × 100 Test compound: Compound No. 1 (final concentration of 500 ppm) Test microbial strains: Malassezia pachydermatis (IFM56528 strain), M. furfur (IMF55951 strain), M. sympodialis (IMF48588 strain), M. globosa (IMF51946 strain), and M. restricta (IMF55992 strain) The colony formation inhibition rate for each of the test strains was determined by the same method as in Test Example 1.

Assay [2] relates to M. sympodialis (IMF48588 strain). The description is as above. The settings on record: 1 min, final concentration 500 ppm, 1 minute contact, read-out: Colony formation inhibition rate (%). The procedure: as §1
The test system of assay [3] is M. furfur (IMF55951 strain). Described as above. The settings on record: 1 min, final concentration 500 ppm, 1 minute contact, read-out: Colony formation inhibition rate (%). Here is the method: as §1
Assay [4] deals with M. restricta (IMF55992 strain). The assay is described as above. Conditions: 1 min, final concentration 500 ppm, 1 minute contact, read-out: Colony formation inhibition rate (%). The procedure: as §1
For assay [5], the system named is Malassezia pachydermatis (IFM56528). Kind of assay: Antifungal activity test, fungicidal concentration after 1 minute contact (Test Examples 10-1 and 10-2). The settings on record: for half fungicidal concentration MFC50: M. pachydermatis IFM56528, colony formation inhibition rate of 50%; for 90% fungicidal concentration MFC90: M. pachydermatis IFM56528, colony formation inhibition rate of 90%; for MFC: Malassezia pachydermatis, 1 min, M. pachydermatis IFM56528, no colony growth, read-out: Minimum fungicidal concentration MFC100. Here is the method: Test Example 10-1: Antifungal Activity Test
Test Compound: Compound No. 6
Test Microbial Strain: Malassezia Pachydermatis (IFM56528)
The Malassezia microbe (Malassezia pachydermatis) cultured for 5 to 7 days in a Sabouraud medium (1% peptone, 4% dextrin, 1.5% agar) was suspended in physiological saline, and a suspension thereof was prepared in such a way as to have an absorbance of 0.025 at 600 nm. Thereto, the test compound dissolved in DMSO was added in such a way as to provide a final concentration of 70, 65, 64, 60, 55, 45, 40, 35, 32, 20, 18, or 8 ppm, and after 1 minute, 10 µL of the suspension and 10 mL of physiological saline were placed in a syringe and stirred, and the syringe was connected to a 37 mm Quality Monitor (manufactured by Pall Corporation) followed by filtration and washing. The membrane filter was impregnated as it was with the Sabouraud medium and subjected to culturing at 32° C. for 72 hours, the presence or absence of colony growth was investigated, and the concentration at which there was no colony growth was determined as the minimum fungicidal concentration (MFC100). When there was colony growth, the number of colonies formed there (the number of colonies in the inventive plot) and the number of colonies in a solvent to which the test compound was not added (the number of colonies in the non-agent treated plot) were measured, the colony formation inhibition rate (%) was determined according to the following expression, and the concentration showing a colony formation inhibition rate of 90% was determined as the 90% fungicidal concentration (MFC90), and the concentration showing a colony formation inhibition rate of 50% was determined as half fungicidal concentration (MFC50).
Colony formation inhibition rate (%) = [(number of colonies in non-agent treated plot - number of colonies in inventive plot)/number of colonies in non-agent treated plot] × 100
Test Example 10-2: Antifungal Activity Test
Test Compound: Compound No. 1
The Malassezia microbe (Malassezia pachydermatis) cultured for 5 to 7 days in a Sabouraud medium (1% peptone, 4% dextrin, 1.5% agar) was suspended in physiological saline, and a suspension thereof was prepared in such a way as to have an absorbance of 0.025 at 600 nm. Thereto, the test compound dissolved in DMSO was added in such a way as to provide a final concentration of 500, 250, 200, 190, 180, 170, 160, 150, 140, 130, 125, 120, 110, 100, 90, 80, 70, or 64 ppm, and after 1 minute, 10 µL of the suspension and 10 mL of physiological saline were placed in a syringe and stirred, and the syringe was connected to a 37 mm Quality Monitor (manufactured by Pall Corporation) followed by filtration and washing. The membrane filter was impregnated as it was with the Sabouraud medium and subjected to culturing at 32° C. for 72 hours, the presence or absence of colony growth was investigated, and the concentration at which there was no colony growth was determined as the minimum fungicidal concentration (MFC100). When there was colony growth, the number of colonies formed there (the number of colonies in the inventive plot) and the number of colonies in a solvent to which the test compound was not added (the number of colonies in the non-agent treated plot) were measured, the colony formation inhibition rate (%) was determined according to the following expression, and the concentration showing a colony formation inhibition rate of 90% was determined as the 90% fungicidal concentration (MFC90), and the concentration showing a colony formation inhibition rate of 50% was determined as half fungicidal concentration (MFC50).

Consider `Cc1ccc(-c2nc(C#N)[nH]c2Cl)cc1` [Compound No. 1, 5-Chloro-4-(4-methylphenyl)-1H-imidazole-2-carbonitrile], for which the inhibition (as a rule, the change of the read-out against control, counted positive when it falls) at 500 ppm amounted to 97% in assay [1], 100% in assay [2], 100% in assay [3] and 100% in assay [4]. Besides, in assay [5], the “half fungicidal concentration MFC50” value is listed as 64 ppm. In assay [5], the “90% fungicidal concentration MFC90” value was 130 ppm. For the same compound, the MFC in assay [5] was 160 µg/mL (≈ 735 µM).
`Cc1ccc(-c2nc(C#N)[nH]c2Cl)cc1Cl` [Compound No. 6, 5-chloro-4-(3-chloro-4-methylphenyl)-1H-imidazole-2-carbonitrile]: in assay [5], the “half fungicidal concentration MFC50” value was 8 ppm, the “90% fungicidal concentration MFC90” value stood at 20 ppm and the MFC is 40 µg/mL (≈ 159 µM).

These data come from patent US20230255939A1, “Antimicrobial Agent for Non-Human Animal” (ISHIHARA SANGYO KAISHA, LTD, priority 2020, published 2023).
